Entries after “also recorded” stand apart in the source; their conditions may differ.
Tests used:
[1] = system: Human Fibroblasts; assay: De novo cholesterol synthesis in human fibroblasts (D2O); format: cell-based; settings: for % DE NOVO (De Novo Cholesterol Synthesis): 96 h, n = 3, untreated 19.0
Description: (§1) Normal LDLR(+) human fibroblasts (GM3440) were obtained from the National Institute of General Medical Sciences Human Genetic Cell Repository. Stock fibroblast monolayers were maintained in T-75 disposable Nunc flasks, in a medium comprising 10 ml of MEM (Eagle's Minimum Essential Medium with Earl's salts, pH 7.4) supplemented with 10% (v/v) fetal bovine serum (FBS), 2% (v/v) non-essential and essential amino acids, 1% (v/v) MEM vitamins, 1% L-glutamine (292 ug/ml), 1% penicillin (100 U/ml)-streptomycin (100 ug/ml). The fibroblast stock was maintained at 37° C. in a humidified atmosphere of 5% CO2 and 95% air.
(§2) For experiments using fibroblasts, confluent stock cultures (5-18 passages) were washed once with Dulbecco's PBS (phosphate buffered saline) prior to the addition of 3 ml aliquots of experimental MEM containing 25% (v/v) D2 O, 9% (v/v) dilapidated FBS, 1% FBS (v/v), 1% MEM vitamins and L-glutamine, and 2% of essential and non-essential amino acids and 20 mM HEPES buffer.
(§3) The fibroblast and hepatoblastoma cells were cultured in media containing 25% D2 O and 1% FBS in order to determine de novo cholesterol synthesis under conditions that permit receptor mediated cholesterol transport, according to the method of Easterman & Javitt et al., J. Lipid Res., 26: 950-954 (1985). Dish cultures of each cell type were prepared, and 26-aminocholesterol, dissolved in N,N-dimethylformamide (DMF, 9 ul per dish, 0.3% v/v) was added to each culture. The cells were then grown to confluence (96 hours, day 5). […] Duplicate or triplicate dishes containing 9 ul of DMF, but without 26-aminocholesterol, were used as controls.
After 96 hours of incubation, medium was removed from the cell cultures, and the cells were washed with Dulbecco's PBS and were harvested with 0.05% trypsin - 0.02% EDTA. The protease was deactivated with an equivolume aliquot of soybean trypsin inhibitor, and the resulting cell suspension was centrifuged for 5 minutes at 500xg. An internal standard of 5B-cholestan-3B-ol was added to the pellets prior to extraction with an 8:4:3 chloroform:methanol:water Folch mixture, as described in Folch et al., J. Biol. Chem., 266: 497-509 (1957). An aliquot of the extract was blown to dryness under nitrogen and silylated with 2:1:1 MSTFA (a sylated reagent supplied by Pierce Co.): toluene:-pyridine. Free cholesterol was determined by gas-liquid chromatography (GLC) on a Perkin-Elmer capillary gas-liquid chromatography model 8320 fitted with a 20 m DE-1 methylsilicon glass column (Supelco). The remaining extract was dried and saponified with 2% ethanolic KOH at 80° C. for one hour. The […] was then re-extracted and total cholesterol was measured by GLC after silylation. Cholesterol ester was calculated as the difference between the total and free cholesterol determinations. Newly synthesized cholesterol was determined by GLC-MS isotope mass ratios, using a Hewlett-Packard GC-MS spectrometer model 5890 fitted with DB-1 methyl silicon 0.18 i.d. 20 m glass column (Supelco), according to the method of J. Lipid. Res., 26: 950-954, supra. […]

[2] = system: LDLR (+) Human Fibroblasts; assay: Total 125I-LDL binding to human fibroblasts; format: cell-based; settings: for 125I-LDL BINDING: 10 ug/ml 125I-LDL, 4 h, 37° C., n = 3, untreated 49.7; for LDL-binding (in words): human fibroblasts / tissue cells
Description: as §1, §2, §3
LDL (d, 1.019-1.03) was isolated by sequential preparative ultracentrifugation of normal human plasma, using solid KBr for density adjustment, according to the methods of Havel et al., J. Clin. Invest., 34: 1345-1353 (1955) and Radding & Steinberg, J Clin. Invest., 39: 1560-1569 (1960). The isolated LDL was then iodinated with ^125 INa by the monochloride procedure of McFarlane, Nature, 102: 53 (1958), as modified for lipoproteins according to Bilheimer et al., Biochim. Biophys. Acta. 260: 212-221 (1972). To remove free iodine, the LDL preparation was subjected to column chromatography on a Sephadex G-25M disposable mini-column (Pharmacia PD-10) and was dialized against 0.15 M NaCl and […] EDTA, pH 7.4. The specific activity of all LDL preparations ranged between 160-300 cpm/mg of LDL proteins. ^125 I-LDL was stored at 4° C. and was sterilized by filtration through a 0.45 um membrane just prior to incubation with the treated fibroblast and hepatoblastoma cell cultures and control cultures.
For binding studies, a fixed concentration of 10 ug/ml of ^125 I-LDL was added directly to the monolayers of the confluent culture medium (at or near the 96th hour) and incubation was continued for a further 4 hours at 37° C. for fibroblasts and 4° C. for HepG2 cells. After this incubation, the culture dishes were placed on ice, the medium was removed, and the cell monolayers were washed as described in Goldstein & Brown, J. Biol. Chem., 249: 5153-5162 (1974). The monolayers were then scraped off the dishes with a teflon policeman and were solubilized with 1 ml of 0.1 N NaOH.
Cell-associated radioactivity was measured in a Packard auto gamma scintillation spectrometer Model 5160, and cell protein was measured by the method of Lowry et al., J. Biol. Chem., 193: 265-275 (1951), using bovine serum albumin as a standard. Total ^125 I-LDL binding was expressed as the mass of ^125 I-LDL (mg) per mg of cell protein.
For purposes of comparison, ^125 I-LDL and cholesterol assays were also conducted in cultures prepared according to the above methods, but incubated with 26-hydroxycholesterol in one set of experiments and with the sterol 26-thiacholesterol in another set of experiments. These sterols were obtained according to known methods, similar to those described above for 26-aminocholesterol.

Row | SMILES | de novo cholesterol synthesis (in words) [1] | % DE NOVO (De Novo Cholesterol Synthesis) ([1]; 0.156 uM) [%] | % DE NOVO (De Novo Cholesterol Synthesis) ([1]; 0.312 uM) [%] | % DE NOVO (De Novo Cholesterol Synthesis) ([1]; 0.625 uM) [%] | 125I-LDL BINDING ([2]; 0.156 uM, human fibroblasts) | 125I-LDL BINDING ([2]; 0.312 uM, human fibroblasts) | 125I-LDL BINDING ([2]; 0.625 uM, human fibroblasts) | LDL-binding (in words) [2] | potency in comparison (in words) ([2]; human fibroblasts, versus 26-hydroxycholesterol) | % DE NOVO (De Novo Cholesterol Synthesis) ([1]; 5.0 uM) [%] | % DE NOVO (De Novo Cholesterol Synthesis) ([1]; 10.0 uM) [%] | % DE NOVO (De Novo Cholesterol Synthesis) ([1]; 20.0 uM) [%] | 125I-LDL BINDING ([2]; 5.0 uM, human fibroblasts) | 125I-LDL BINDING ([2]; 10.0 uM, human fibroblasts) | 125I-LDL BINDING ([2]; 20.0 uM, human fibroblasts)
1 | C[C@@H](CN)CCC[C@@H](C)[C@H]1CC[C@H]2[C@@H]3CC=C4C[C@@H](O)CC[C@]4(C)[C@H]3CC[C@]12C [26-NH2, 26-aminocholesterol] | significant reductions | 16.7 | 10.0 | 2.7 | 29.6 +/- 1.1 ug LDL protein per mg cell pro | 22.6 +/- 5.4 ug LDL protein per mg cell pro | 13.3 +/- 1.6 ug LDL protein per mg cell pro | significant reductions; also recorded: downregulates LDL binding; also recorded: selectively inhibits and reduces LDL binding | significantly more potent | – | – | – | – | – | –
2 | CC(CO)CCC[C@@H](C)[C@H]1CC[C@H]2[C@@H]3CC=C4C[C@@H](O)CC[C@]4(C)[C@H]3CC[C@]12C (stereo partly drawn) [26-OH, 26-hydroxycholesterol] | significant reductions | – | – | 3.9 | – | – | 22.0 +/- 2.4 ug LDL protein per mg cell pro | significant reductions | – | – | – | – | – | – | –
3 | CC(CS)CCC[C@@H](C)[C@H]1CC[C@H]2[C@@H]3CC=C4C[C@@H](O)CC[C@]4(C)[C@H]3CC[C@]12C (stereo partly drawn) [26-SH] | no impact | – | – | – | – | – | – | no impact | – | 27.8 | 21.9 | 13.6 | 37.9 +/- 1.8 ug LDL protein per mg cell pro | 25.7 +/- 0.7 ug LDL protein per mg cell pro | 35.7 +/- 4.8 ug LDL protein per mg cell pro

Reference: patent US4939134A, “26-aminocholesterol and derivatives and analogs thereof in the regulation of cholesterol accumulation in body tissue” (New York University, priority 1988, dated 1990)
